The source of these data is patent US20240228500A1, “THERAPEUTIC CONJUGATES” (TOTUS MEDICINES INC., priority 2021, published 2024).

This assay has as its system NanoLuc fused to the biological target. Kind of assay: NanoBRET binding assay of ARCS in transfected HEK293 cells with washout. Details: species or system human. To be noted: HEK293 cells transiently transfected with NanoLuc fusion DNA, compound incubated overnight, cells washed 5x in PBS, tracer added. The protocol:
Human embryonic kidney 293-H (HEK 293, Gibco 293-H, #11631017) cell lines were maintained in Dulbecco's Modified Eagle Medium, high glucose, pyruvate (DMEM, Gibco, #11995065) supplemented with 10% fetal bovine serum (FBS, Gibco, #10082147) and 1× penicillin-streptomycin (100× solution, Gibco, #15140148) at 37° C. and 5% CO2 in a water-saturated incubator. Cells were trypsinized using 0.05% or 0.25% Trypsin-EDTA solution (Trypsin-EDTA, phenol red, Gibco, #25200056 (0.25%) or #25300054). Opti-MEM media supplemented with 10% fetal bovine serum (Opti-MEM I reduced serum media, no phenol red, Gibco, #11058021) was used for culturing cells overnight for NanoBRET readout experiments.
HEK293 cells were then cultivated appropriately prior to assay. The medium from cell flask was removed via aspiration, washed 1× with PBS followed by aspiration, trypsinized, and cells were allowed to dissociate from the flask. Trypsin is neutralized using growth medium and cells were pelleted via centrifugation at 200×g for 5 minutes. The medium was aspirated and the cells were resuspended into a single cell suspension using Opti-MEM I supplemented with 10% FBS. The cell density was adjusted to 2×10^5/mL in Opti-MEM I supplemented with 10% FBS in a sterile, conical tube. The cells were transfected and aliquoted directly in a 96-well plate for the NanoBRET assay the next day, and therefore, the cells were cultured overnight in Opti-MEM. The cells were also transfected in bulk and dispensed into a 96-well plate to allow cells to adhere to the plate overnight, thereby enabling washout studies.
The lipid:DNA complexes were then prepared as follows: A 10 μg/mL solution of DNA was prepared in Opti-MEM without serum. This solution contains the following ratios of carrier DNA and DNA encoding NanoLuc fused to the biological target. Serial dilution steps may be warranted to accurately dilute the NanoLuc fusion DNA. Added, in order, were the following reagents to a sterile polystyrene test tube: 1 mL of Opti-MEM without phenol red; 9.0 μg/mL of carrier DNA; 1.0 μg/mL of NanoLuc fusion DNA (for some targets, the amount is less). The reagents were mixed thoroughly.
[…] was added into each mL of DNA mixture to form lipid:DNA complex. […] It was mixed by pipetting up and down 5-10 times and incubated at room temperature for 20 minutes to allow complexes to form. 1 part (e.g. 1 mL) of lipid:DNA complex was mixed with 20 parts (e.g. 20 mL) of HEK293 cells in suspension at 2×10^5/mL and mixed gently by pipetting up and down 5 times in a sterile, conical tube. Larger or smaller bulk transfections were scaled accordingly, using this ratio. 100 μL cells+lipid:DNA complex was dispensed into a sterile, tissue-culture treated 96-well plate (20,000 cells/well), and incubated at least 16 hours to allow expression. The cells were incubated in a 37° C.+5% CO2 incubator for >16 hrs. A serially diluted inhibitor (i.e. ARCS) or test compound was prepared at 100× final concentration in 100% DMSO. The serially diluted inhibitor stock was prepared in PCR plates. 1 μL per well of 100× serially diluted inhibitor/test compound was added to the cells in 96-well plates that have been transiently transfected overnight and mixed by tapping the plate by hand. The plate was incubated at 37° C.+5% CO2 incubator overnight. A 1× solution of substrate mix (500× stock) and appropriate concentration of tracer was prepared in Opti-Mem. The cells were washed by setting a plate washer to the 96 well plate 5× in PBS pH 7.4 by adding 200 μL PBS each time. The cells were then incubated at 37° C. for 2 hours. 100 μL of the 1× Substrate-Tracer solution was added and the 96 well plate was gently tapped to mix. The plate on plate reader is read every hour for the next 6 hours.

`C=C(C)C(=O)NCC(=O)N1CCN(Cc2cc3c(N4CCOCC4)nc(-c4cnc(NC(=O)OC)cc4C(F)(F)F)nn3c2)CC1` [Compound 1-201]: the “Binding (Percent inhibition)” value is listed as “++++ (++++ >80%)”.
As to `COC(=O)Nc1cc(C(F)(F)F)c(-c2nc(N3CCOCC3)c3cc(CN4CCN(C(=O)CNC(=O)/C=C/CN5CCOCC5)CC4)cn3n2)cn1` [Compound 1-202], the “Binding (Percent inhibition)” value was “++++ (++++ >80%)”.
For the compound `COC(=O)Nc1cc(C(F)(F)F)c(-c2nc(N3CCOCC3)c3cc(CN4CCN(C(=O)CNC(=O)/C=C/CN5CCN(C)CC5)CC4)cn3n2)cn1` [Compound 1-203], the “Binding (Percent inhibition)” value was “++ (++ 20-50%)”.
For the compound `COC(=O)Nc1cc(C(F)(F)F)c(-c2nc(N3CCOCC3)c3cc(CN4CCN(C(=O)CNC(=O)/C=C/CN5CC(F)(F)C5)CC4)cn3n2)cn1` [Compound 1-204], the “Binding (Percent inhibition)” value is “++++ (++++ >80%)”.
Regarding `COC(=O)Nc1cc(C(F)(F)F)c(-c2nc(N3CCOCC3)c3cc(CN4CCN(C(=O)CNC(=O)/C=C/CF)CC4)cn3n2)cn1` [Compound 1-206], the “Binding (Percent inhibition)” value was “+ (+ <20%)”.
As to `C=C(F)C(=O)NCC(=O)N1CCN(Cc2cc3c(N4CCOCC4)nc(-c4cnc(NC(=O)OC)cc4C(F)(F)F)nn3c2)CC1` [Compound 1-212], the “Binding (Percent inhibition)” value is recorded as “++++ (++++ >80%)”.
As to `COC(=O)Nc1cc(C(F)(F)F)c(-c2nc(N3CCOCC3)c3cc(CN4CCN(C(=O)CNC(=O)/C=C/CN5CC6(COC6)C5)CC4)cn3n2)cn1` [Compound 1-213], the “Binding (Percent inhibition)” value is listed as “+ (+ <20%)”.
For the compound `COC(=O)Nc1cc(C(F)(F)F)c(-c2nc(N3CCOCC3)c3cc(CN4CCN(C(=O)CNC(C)=O)CC4)cn3n2)cn1` [Compound 1-214], the “Binding (Percent inhibition)” value is “++++ (++++ >80%)”.
For the compound `C#CCCC(=O)Nc1ccc(-c2nc(N3CCOCC3)c3cc(CN4CCN(C(=O)CNC(=O)C=C)CC4)cn3n2)cc1` [Compound 1-215], the “Binding (Percent inhibition)” value is recorded as “+ (+ <20%)”.
Regarding `COC(=O)Nc1cc(C(F)(F)F)c(-c2nc(N3CCOCC3)c3cc(CN4CCN(C(=O)CNC(=O)/C=C/CN5CCCCC5)CC4)cn3n2)cn1` [Compound 1-217], the “Binding (Percent inhibition)” value is “++ (++ 20-50%)”.
As to `C=CC(=O)NCC(=O)N1CC2(CN(Cc3cc4c(N5CCOCC5)nc(-c5cnc(NC(=O)OC)cc5C(F)(F)F)nn4c3)C2)C1` [Compound 1-223], the “Binding (Percent inhibition)” value was “++ (++ 20-50%)”.
With `C=CC(=O)N1CCC(C(=O)N2CCN(Cc3cc4c(N5CCOCC5)nc(-c5cnc(NC(=O)OC)cc5C(F)(F)F)nn4c3)CC2)CC1` [Compound 1-304], the “Binding (Percent inhibition)” value was “++++ (++++ >80%)”.
Consider `C=CC(=O)Nc1cccc(C(=O)N2CCN(Cc3cc4c(N5CCOCC5)nc(-c5cnc(NC(=O)OC)cc5C(F)(F)F)nn4c3)CC2)c1` [Compound 1-306], for which the “Binding (Percent inhibition)” value is reported as “++ (++ 20-50%)”.
In the case of `C=CC(=O)N1CCC[C@@H]1C(=O)N1CCN(Cc2cc3c(N4CCOCC4)nc(-c4cnc(NC(=O)OC)cc4C(F)(F)F)nn3c2)CC1` [Compound 1-308] it was “++++ (++++ >80%)”.
Take `C=CC(=O)N1CCC[C@H]1C(=O)N1CCN(Cc2cc3c(N4CCOCC4)nc(-c4cnc(NC(=O)OC)cc4C(F)(F)F)nn3c2)CC1` [Compound 1-309]: the “Binding (Percent inhibition)” value is listed as “++++ (++++ >80%)”.
Turning to `C=CC(=O)N(C)c1cccc(C(=O)N2CCN(Cc3cc4c(N5CCOCC5)nc(-c5cnc(NC(=O)OC)cc5C(F)(F)F)nn4c3)CC2)c1` [Compound 1-312], the “Binding (Percent inhibition)” value is given as “++ (++ 20-50%)”.
Regarding `C=CC(=O)N[C@H](C)C(=O)N1CCN(Cc2cc3c(N4CCOCC4)nc(-c4cnc(NC(=O)OC)cc4C(F)(F)F)nn3c2)CC1` [Compound 1-313], the “Binding (Percent inhibition)” value was “++++ (++++ >80%)”.
With `C=C(OC)C(=O)NCC(=O)N1CCN(Cc2cc3c(N4CCOCC4)nc(-c4cnc(NC(=O)OC)cc4C(F)(F)F)nn3c2)CC1` [Compound 1-314], the “Binding (Percent inhibition)” value is on record as “++++ (++++ >80%)”.
Consider `C=CC(=O)N[C@@H](C)C(=O)N1CCN(Cc2cc3c(N4CCOCC4)nc(-c4cnc(NC(=O)OC)cc4C(F)(F)F)nn3c2)CC1` [Compound 1-315], for which the “Binding (Percent inhibition)” value is “++++ (++++ >80%)”.
